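In this assay, cells in 96-well plates receive the compound at five concentrations for 48 hours. Endpoints are linearly interpolated between the surrounding concentrations. GI50 marks 50% less growth. TGI denotes the concentration required for complete inhibition of growth.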
test system: BT-549 breast; assay: growth of human tumour cells (NCI), 48 h

Going from `Cc1cccc2c(N)c3cccc(C(=O)NCCCNCCN)c3nc12` to `NS(=O)(=O)c1nnc(NC(=O)c2ccccc2)s1`, the TGI rises from 28 µM to over 100 µM.

First: COC12C=CC(CC1)C(C)(C)C2=O (stereo not given)
Second: CC(=O)OCC1OC(N2C(c3ccccc3)=CC(c3ccccc3)C(C#N)=C2S)C(OC(C)=O)C(OC(C)=O)C1OC(C)=O (stereo not given)
The TGI of the first is higher: over 100 µM for the first, 20.6 µM for the second.

`CCOC(=O)/C(O)=C(/C=NC(=S)c1ccncc1)C(=O)OCC` was tested, and the TGI was over 100 µM.

test system: RXF 393 renal; assay: growth of human tumour cells (NCI), 48 h

`CC(=O)NNc1nc(C)c(C(/C=C/c2cccc([N+](=O)[O-])c2)=N/NC(=S)NN)s1` and `NS(=O)(=O)c1nnc(NC(=O)c2ccccc2)s1` cannot be ordered by TGI: over 100 µM for the first, over 100 µM for the second.

First: CCCN(CCCCC(NC(C)=O)C(=O)NCc1ccccc1)C(=O)N(CCCl)N=O (stereo not given)
Second: Cc1cccc2c(N)c3cccc(C(=O)NCCCNCCN)c3nc12
The TGI of the first is 5.3-fold higher: 98.9 µM for the first, 18.6 µM for the second.

Compared with `O=C(CNc1ccc(Cl)cc1)Nn1c(-c2ccccc2)nc2ccccc2c1=O`, `O=C(Nc1ccc2nc(-c3ccccc3)cn2c1)Oc1ccccc1` is 2.4-fold lower in TGI: 17.4 µM for the first, 7.31 µM for the second.

Going from `NC(N)=N/N=C/c1c(Cl)nc2sccn12` to `CCOC(=O)/C(O)=C(/C=NC(=S)c1ccncc1)C(=O)OCC`, the TGI rises from 65.1 µM to over 100 µM.

Compared with `COc1cc(C2c3cc4c(cc3[C@H](OCCN(C)C)[C@@H]3COC(=O)C23)OCO4)cc(OC)c1O` (stereo not given in full), `CC(=O)OCC1OC(N2C(c3ccccc3)=CC(c3ccccc3)C(C#N)=C2S)C(OC(C)=O)C(OC(C)=O)C1OC(C)=O` (stereo not given) is 8.3-fold higher in TGI: 1.55 µM for the first, 12.9 µM for the second.

`COC12C=CC(CC1)C(C)(C)C2=O` (stereo not given) was tested, and the TGI was over 100 µM.

test system: HOP-92 NSCLC; assay: growth of human tumour cells (NCI), 48 h

`CC(=O)NNc1nc(C)c(C(/C=C/c2cccc([N+](=O)[O-])c2)=N/NC(=S)NN)s1` and `NS(=O)(=O)c1nnc(NC(=O)c2ccccc2)s1` cannot be ordered by TGI: over 100 µM for the first, over 100 µM for the second.

Compared with `CCCN(CCCCC(NC(C)=O)C(=O)NCc1ccccc1)C(=O)N(CCCl)N=O` (stereo not given), `Cc1cccc2c(N)c3cccc(C(=O)NCCCNCCN)c3nc12` is lower in TGI: over 100 µM for the first, 42.7 µM for the second.

Compared with `O=C(CNc1ccc(Cl)cc1)Nn1c(-c2ccccc2)nc2ccccc2c1=O`, `O=C(Nc1ccc2nc(-c3ccccc3)cn2c1)Oc1ccccc1` is higher in TGI: 13.4 µM for the first, over 100 µM for the second.

Compared with `NC(N)=N/N=C/c1c(Cl)nc2sccn12`, `CCOC(=O)/C(O)=C(/C=NC(=S)c1ccncc1)C(=O)OCC` is higher in TGI: 70.6 µM for the first, over 100 µM for the second.

Going from `COc1cc(C2c3cc4c(cc3[C@H](OCCN(C)C)[C@@H]3COC(=O)C23)OCO4)cc(OC)c1O` (stereo not given in full) to `CC(=O)OCC1OC(N2C(c3ccccc3)=CC(c3ccccc3)C(C#N)=C2S)C(OC(C)=O)C(OC(C)=O)C1OC(C)=O` (stereo not given), the TGI rises from 1.5 µM to 16.6 µM (11-fold).

Work on `COC12C=CC(CC1)C(C)(C)C2=O` (stereo not given) yielded a TGI of over 100 µM.

`CCOC(=O)/C(O)=C(/C=NC(=S)c1ccncc1)C(=O)OCC` was tested, and the GI50 was over 100 µM.

test system: OVCAR-5 ovarian; assay: growth of human tumour cells (NCI), 48 h

`CC(=O)NNc1nc(C)c(C(/C=C/c2cccc([N+](=O)[O-])c2)=N/NC(=S)NN)s1` and `NS(=O)(=O)c1nnc(NC(=O)c2ccccc2)s1` cannot be ordered by TGI: over 100 µM for the first, over 100 µM for the second.

Compared with `CCCN(CCCCC(NC(C)=O)C(=O)NCc1ccccc1)C(=O)N(CCCl)N=O` (stereo not given), `Cc1cccc2c(N)c3cccc(C(=O)NCCCNCCN)c3nc12` is lower in TGI: over 100 µM for the first, 38.4 µM for the second.

First: O=C(CNc1ccc(Cl)cc1)Nn1c(-c2ccccc2)nc2ccccc2c1=O
Second: O=C(Nc1ccc2nc(-c3ccccc3)cn2c1)Oc1ccccc1
The TGI of the first is lower: 28.2 µM for the first, over 100 µM for the second.

Going from `NC(N)=N/N=C/c1c(Cl)nc2sccn12` to `CCOC(=O)/C(O)=C(/C=NC(=S)c1ccncc1)C(=O)OCC`, the TGI rises from 80.9 µM to over 100 µM.

First: COc1cc(C2c3cc4c(cc3[C@H](OCCN(C)C)[C@@H]3COC(=O)C23)OCO4)cc(OC)c1O (stereo not given in full)
Second: CC(=O)OCC1OC(N2C(c3ccccc3)=CC(c3ccccc3)C(C#N)=C2S)C(OC(C)=O)C(OC(C)=O)C1OC(C)=O (stereo not given)
The TGI of the first is lower: 3.82 µM for the first, over 100 µM for the second.

Work on `COC12C=CC(CC1)C(C)(C)C2=O` (stereo not given) yielded a TGI of over 100 µM.

test system: DU-145 prostate; assay: growth of human tumour cells (NCI), 48 h

`CC(=O)NNc1nc(C)c(C(/C=C/c2cccc([N+](=O)[O-])c2)=N/NC(=S)NN)s1` and `NS(=O)(=O)c1nnc(NC(=O)c2ccccc2)s1` cannot be ordered by TGI: over 100 µM for the first, over 100 µM for the second.

First: CCCN(CCCCC(NC(C)=O)C(=O)NCc1ccccc1)C(=O)N(CCCl)N=O (stereo not given)
Second: Cc1cccc2c(N)c3cccc(C(=O)NCCCNCCN)c3nc12
The TGI of the first is higher: over 100 µM for the first, 17.2 µM for the second.

Going from `O=C(CNc1ccc(Cl)cc1)Nn1c(-c2ccccc2)nc2ccccc2c1=O` to `O=C(Nc1ccc2nc(-c3ccccc3)cn2c1)Oc1ccccc1`, the TGI rises from 28.5 µM to over 100 µM.

`NC(N)=N/N=C/c1c(Cl)nc2sccn12` and `CCOC(=O)/C(O)=C(/C=NC(=S)c1ccncc1)C(=O)OCC` cannot be ordered by TGI: over 100 µM for the first, over 100 µM for the second.

First: COc1cc(C2c3cc4c(cc3[C@H](OCCN(C)C)[C@@H]3COC(=O)C23)OCO4)cc(OC)c1O (stereo not given in full)
Second: CC(=O)OCC1OC(N2C(c3ccccc3)=CC(c3ccccc3)C(C#N)=C2S)C(OC(C)=O)C(OC(C)=O)C1OC(C)=O (stereo not given)
The TGI of the first is lower: 0.549 µM for the first, over 100 µM for the second.

Compound `COC12C=CC(CC1)C(C)(C)C2=O` (stereo not given) has a TGI of over 100 µM.
